For one substance, Time to clot results are on record in patent US10357589B2, “One component fibrin glue comprising a polymerization inhibitor” (Omrix Biopharmaceuticals Ltd., priority 2013, dated 2019).

“Also recorded” adds a separate entry of the source.

Assay [1] deals with fibrin monomers. Description: Time to clot of GPRP peptide:fibrin monomers mixture (cessation of flow when inverting the tube). In kind it is biochemical. The following applies: 1% fibrin monomers, thrombin 10 or 100 IU/ml.
Assay [2] deals with fibrin monomers. Described as above. Type of assay: biochemical. As for the experimental part:
A mixture of GPRP peptide:fibrin monomers was prepared as follows:
Fibrinogen final concentration used was 1%, 1.5%, 3%, 3.5%. A BAC2 solution [fibrinogen component of EVICEL®] containing 7% clottable fibrinogen was diluted in 20 mM sodium acetate (NaAcetate) buffer, pH 7.0 to obtain the final listed concentrations.
To form fibrin, thrombin (as in EVICEL® Fibrin Sealant) was added to the fibrinogen solution at a final concentration of 10 IU/ml or 100 IU/ml and then the time to clot was recorded. Clotting was assessed by cessation of flow when inverting the tube.
The fibrin monomer concentration was estimated as being equal to the fibrinogen concentration.
All of these (having a ratio of at most 57:1) are below the minimal ratio required for long term stabilization of fibrin monomers. The GPRP:fibrin solution was prepared as described above (by adding a GPRP peptide into a fibrinogen solution and adding thrombin into the GPRP:fibrinogen mix). Next, the time to clotting was recorded as above.

Regarding Gly-Pro-Arg-Pro [GPRP], the Time to clot in the assay on fibrin monomers [1] (5 mM GPRP, GPRP:fibrin 170 fold) is 4 h; with fibrin monomers [1] (10 mM GPRP, GPRP:fibrin 340 fold) it was 170 to 190 h; with fibrin monomers [2] (1% fibrin monomers, 0.1 mM GPRP, GPRP:fibrin 3.4 fold, thrombin 10 or 100 IU/ml), “immediately; also recorded: Immediate”; in the assay with fibrin monomers [2] (3% fibrin monomers, 0.1 mM GPRP, GPRP:fibrin 1.1 fold), 5 s; with fibrin monomers [2] (3% fibrin monomers, 0.2 mM GPRP, GPRP:fibrin 2.3 fold), 7 s; in the assay with fibrin monomers [2] (3% fibrin monomers, 0.5 mM GPRP, GPRP:fibrin 5.7 fold), 11 s. For the same substance, the Time to clot in the assay on fibrin monomers [2] (3% fibrin monomers, 1 mM GPRP, GPRP:fibrin 11.3 fold) was 13 s; with fibrin monomers [2] (3% fibrin monomers, 1.5 mM GPRP, GPRP:fibrin 17 fold) it was 22 s; in the assay on fibrin monomers [2] (3% fibrin monomers, 2 mM GPRP, GPRP:fibrin 22.7 fold), 28 s; with fibrin monomers [2] (3% fibrin monomers, 3 mM GPRP, GPRP:fibrin 34 fold), 150 s; in the assay with fibrin monomers [2] (3% fibrin monomers, 4 mM GPRP, GPRP:fibrin 45 fold), 480 s; with fibrin monomers [2] (3% fibrin monomers, 5 mM GPRP, GPRP:fibrin 56.7 fold) it was 900 s.
